These results are taken from patent publication US7498348B2, “1 H-imidazole derivatives as cannabinoid receptor modulators” (Solvay Pharmaceuticals, Inc., priority 2003, dated 2009).

In brackets after ≈: the same amount, converted by molar mass. Like-named read-outs stand apart in the source and are kept apart here.

A short description of data set [1]: Determination of aqueous solubility (precipitate formation after 100-fold dilution of DMSO stock solutions). The class given is physicochemical. The note with it: kinetic from dmso stock. How it is done:
Determination of Aqueous Solubility
The compounds are dissolved in DMSO to give 10 mg/ml stock solutions. These stock solutions are divided over several plates. Several diluted concentrations are made with DMSO to 5, 2.5, 1.25, 0.625 and 0.3125 mg/ml, respectively. The stock solution and each derived concentration from this stock solution is taken and diluted 100 fold with water or with water containing a buffer. In every case this gives an aqueous solution which contains 1% DMSO (v/v) and 100, 50, 25, 12.5 and 6.25 and 3.125 μg compound/ml, respectively. The formation of a precipitate is determined in each plate. The measurements were performed at pH=7, applying a HEPES buffer and at pH=2, applying hydrochloric acid. Aqueous solubility is expressed in μg/ml in the table below.
Aqueous solubilities of two of the compounds of general formula (I), the compounds 1 and 4, and the compound 1-(4-chlorophenyl)-2-(2,4-dichloro-phenyl)-N-cyclohexyl-1H-imidazole-4-carboxamide (compound 3 from WO 03/063781) were determined according to the procedure described above.

Data set [2] addresses T1, human cannabinoid CB1 receptor (Homo sapiens, UniProt P21554).
T1 construct: expressed in transfected cells; host or cells: Chinese hamster ovary (CHO) cells, stably transfected; membrane preparations
Nature of the data set: In vitro affinity for cannabinoid-CB1 receptors ([3H]CP-55,940 radioligand, CHO cell membrane preparations). The class given is binding. Conditions: CHO cell membranes, stably transfected human CB1, [3H]CP-55,940; read-out: Human cannabinoid-CB1 receptor In vitro affinity - pKi value (converted). Here is the method: In Vitro Affinity for Cannabinoid-CB1 Receptors
The affinity of the compounds of the invention for cannabinoid CB1 receptors can be determined using membrane preparations of Chinese hamster ovary (CHO) cells in which the human cannabinoid CB1 receptor is stably transfected in conjunction with [^3H]CP-55,940 as radioligand. After incubation of a freshly prepared cell membrane preparation with the [^3H]-ligand, with or without addition of compounds of the invention, separation of bound and free ligand is performed by filtration over glassfiber filters. Radioactivity on the filter is measured by liquid scintillation counting.
Pharmacological test results of a subset of the compounds of the invention, obtained with the assay described above, are given in table 2 below: […]

T1 sequence (P21554 whole entry): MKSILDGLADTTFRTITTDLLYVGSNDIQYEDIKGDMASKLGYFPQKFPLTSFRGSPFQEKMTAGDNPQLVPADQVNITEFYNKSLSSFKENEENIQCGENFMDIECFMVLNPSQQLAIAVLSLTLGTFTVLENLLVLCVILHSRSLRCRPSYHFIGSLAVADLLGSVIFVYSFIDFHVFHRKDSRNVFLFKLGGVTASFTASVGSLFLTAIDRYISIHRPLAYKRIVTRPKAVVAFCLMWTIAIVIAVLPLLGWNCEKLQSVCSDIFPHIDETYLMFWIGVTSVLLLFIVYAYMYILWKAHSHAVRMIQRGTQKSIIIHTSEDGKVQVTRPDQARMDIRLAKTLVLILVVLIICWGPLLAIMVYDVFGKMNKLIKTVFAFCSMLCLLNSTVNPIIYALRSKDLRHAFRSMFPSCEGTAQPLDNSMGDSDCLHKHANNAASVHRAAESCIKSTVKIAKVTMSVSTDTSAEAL

Regarding `O=C(NC1CCCCC1)c1cn(-c2ccc(Cl)cc2)c(-c2ccc(Cl)cc2Cl)n1` [1-(4-chlorophenyl)-2-(2,4-dichloro-phenyl)-N-cyclohexyl-1H-imidazole-4-carboxamide, reference compound], the solubility in data set [1] (pH 2, simulated gastric fluid) is 25 µg/mL (≈ 55.7 µM); in data set [1] (pH 7, aqueous buffer), 25 µg/mL (≈ 55.7 µM).
`O=C(NC1CCCCC1)c1nc(-c2ccc(Cl)cc2Cl)n(-c2ccc(Cl)cc2)c1CN1CCCC1` [Compound 1, N-cyclohexyl-1-(4-chlorophenyl)-2-(2,4-dichlorophenyl)-5-(pyrrolidin-1-ylmethyl)-1H-imidazole-4-carboxamide] returned a melting point of 155 to 157 °C. For the same compound, in data set [1] (pH 2, simulated gastric fluid), the solubility was more than 100 µg/mL. Moreover, in data set [1] (pH 7, aqueous buffer), the solubility stood at 50 µg/mL (≈ 94 µM). In addition, the Ki in data set [2] is 7.94 nM.
`CCN(C)Cc1c(C(=O)NC2CCCCC2)nc(-c2ccc(Cl)cc2Cl)n1-c1ccc(Cl)cc1` [Compound 2, N-cyclohexyl-1-(4-chlorophenyl)-2-(2,4-dichlorophenyl)-5-(N-ethyl,N-methylaminomethyl)-1H-imidazole-4-carboxamide] had a melting point of 135 to 136 °C. Moreover, the Ki in data set [2] is 6.31 nM.
The compound `CN(C)Cc1c(C(=O)NN2CCCCC2)nc(-c2ccc(Cl)cc2Cl)n1-c1ccc(Cl)cc1` [Compound 3, N-(piperidin-1-yl)-1-(4-chlorophenyl)-2-(2,4-dichlorophenyl)-5-(N,N-dimethylaminomethyl)-1H-imidazole-4-carboxamide] had a melting point of 163 to 166 °C. In data set [2], the Ki is 100 nM.
On to `CN(C)Cc1c(C(=O)NC2CCCCC2)nc(-c2ccc(Cl)cc2Cl)n1-c1ccc(Cl)cc1` [Compound 4, N-cyclohexyl-1-(4-chlorophenyl)-2-(2,4-dichlorophenyl)-5-(N,N-dimethylaminomethyl)-1H-imidazole-4-carboxamide], for which the solubility in data set [1] (aqueous buffer, pH = 7, HEPES buffer, 1% DMSO (v/v), read-out: Aqueous solubility in μg/ml at pH = 7) was 50 µg/mL (≈ 98.8 µM); in data set [1] (simulated gastric fluid, pH = 2, hydrochloric acid, 1% DMSO (v/v), read-out: Aqueous solubility in μg/ml at pH = 2) it was more than 100 µg/mL. Further, in data set [2], the Ki is 31.6 nM.
In the case of `CCN(C)Cc1c(C(=O)NN2CCCCC2)nc(-c2ccc(Cl)cc2Cl)n1-c1ccc(Cl)cc1` [Compound 6, N-(piperidin-1-yl)-1-(4-chlorophenyl)-2-(2,4-dichlorophenyl)-5-(N-ethyl, N-methylaminomethyl)-1H-imidazole-4-carboxamide], the Ki in data set [2] is 126 nM.
